Measurements as given in US12318361B2, “Methods for treating cardiovascular diseases” (Olatec Therapeutics LLC, priority 2017, dated 2025).

Assays:
caspase-1 = test: Caspase-1 activity in J774A.1 cell lysates after LPS and nigericin stimulation; type: cell-based, murine; details: 50 μM, J774A.1 cells, n=3, p<0.05
Procedure: J774A.1 murine macrophages cells were stimulated with 1 μg/ml lipopolysaccharide (LPS) for 4 hours and either nigericin (NIG, 10 μM) or ATP (5 mM) was added for 1 hour. OLT1177™ was added to the cells either 30 minutes following LPS stimulation or at the same time as ATP.
1 cell lysates following LPS and NIG stimulation in presence of 50 μM dapansutrile (OLT1177™). Caspase-1 activity is expressed as percent change of the mean value of each assay (n=3) with LPS/NIG set at 100%. Caspase-1 activity was reduced by 35% (p<0.05) in an enzymatic assay of cell lysate from stimulated cells in the presence of dapansutrile, comparing with control.

[1] = tested on: adult CD1 male mice, acute myocardial infarction; test: Acute myocardial infarction (30 min ischemia, 24 h reperfusion), infarct sparing effect, Example 8; type: in vivo; details: 60 mg/kg IP immediately after reperfusion, vs vehicle
Procedure: An acute myocardial infarction in adult CD1 male mice was induced by performing a transient surgical ligation of the left coronary artery for 30 minutes followed by reperfusion for 24 hours: 3 mice received OLT1177™ (60 mg/kg) given intraperitoneally immediately after reperfusion and 8 mice received an equal volume of vehicle (NaCl 0.9%). After 24 hours, left ventricular fractional shortening, a surrogate for cardiac systolic function, was measured, using transthoracic echocardiography. After the echocardiogram, the mice were prepared for infarct size measurement using the Triphenyl-Tetrazolium-Chloride (TTC) and Evans Blue technique and then sacrificed: the area of the heart considered not ischemia (non-risk area) appeared blue, the area of the heart that was at risk but viable appeared red, the infarct myocardium appeared pale-white. The left panel of FIG. 6 depicts the TTC/Evans Blue staining of one mouse treated with vehicle and one with OLT1177™: it is apparent that the area of infarct is much larger in the vehicle.

CS(=O)(=O)CCC#N [OLT1177™, 3-methanesulfonyl-propionitrile]
reduction of caspase-1 activity in cell lysate (LPS/NIG set at 100%) (caspase-1): 35% | infarct size as percentage of the area-at-risk [1]: significantly smaller | left ventricular systolic function (fractional shortening) [1]: preservation
